Laboratory results reported in article PMC9110316 (Computational and Structural Biotechnology Journal, 2022).
Where two headings read alike, the source gives them in different places. Where a SMILES comes first, the peptide text is derived from it. [ ]: non-standard residue; d: D form. The star is where a group is joined. Nle = CCCC[CH](N)C(=O)O; Cbz = O=C(OCc1ccccc1)*

Assays:
[1] = tested on: SARS-CoV-2 B.1.351 (Beta) variant pseudovirus; test: organism not typed; assay type: cell-based; details: Huh-7, read-out: EC50, inhibition of SARS-CoV-2 B.1.351 (Beta) variant pseudovirus infection
[2] = tested on: SARS-CoV-2 B.1.351 (Beta) variant pseudovirus; test: organism not typed; assay type: cell-based; details: A549, read-out: EC50, inhibition of SARS-CoV-2 B.1.351 (Beta) variant pseudovirus infection

SMILES	EC50 [1]	EC50 [2]
CCCCC(C=O)NC(=O)C(CC(C)C)NC(=O)C(CC(C)C)NC(C)=O (stereo not drawn) [Mg-101] (Ac-Leu-Leu-[Nle]-aldehyde; configuration not given here)	0.86 µM	1.89 µM
CC(C)C[C@@H](C=O)NC(=O)[C@H](CC(C)C)NC(=O)[C@H](CC(C)C)NC(=O)OCc1ccccc1 [Mg-132] (Cbz-Leu-Leu-Leu-aldehyde)	0.901 µM	0.908 µM
CC(NC(=O)C(Cc1ccccc1)NC(=O)OCc1ccccc1)C(=O)CF (stereo not shown) [Z-FA-FMK]	10 µM	5.31 µM
CCCC[C@@H](C=O)NC(=O)[C@H](CC(C)C)NC(=O)OCc1ccccc1 [calpeptin]	23.9 µM	36.4 µM
CC(=O)N[C@@H](CC(C)C)C(=O)N[C@@H](CC(C)C)C(=O)N[C@H](C=O)CCCNC(=N)N [leupeptin hemisulfate]	17.1 µM	7.71 µM
